This note sets out measurements from ChEMBL document CHEMBL4261497, “Nucleotide pyrophosphatase/phosphodiesterase 1 (NPP1) and its inhibitors” (Medchemcomm, 2017).

Molecules are shown by their SMILES.

The target in assay [1] is T1, Ectonucleotide pyrophosphatase/phosphodiesterase family member 1 (Homo sapiens, UniProt P22413).
T1 sequence (P22413 whole entry): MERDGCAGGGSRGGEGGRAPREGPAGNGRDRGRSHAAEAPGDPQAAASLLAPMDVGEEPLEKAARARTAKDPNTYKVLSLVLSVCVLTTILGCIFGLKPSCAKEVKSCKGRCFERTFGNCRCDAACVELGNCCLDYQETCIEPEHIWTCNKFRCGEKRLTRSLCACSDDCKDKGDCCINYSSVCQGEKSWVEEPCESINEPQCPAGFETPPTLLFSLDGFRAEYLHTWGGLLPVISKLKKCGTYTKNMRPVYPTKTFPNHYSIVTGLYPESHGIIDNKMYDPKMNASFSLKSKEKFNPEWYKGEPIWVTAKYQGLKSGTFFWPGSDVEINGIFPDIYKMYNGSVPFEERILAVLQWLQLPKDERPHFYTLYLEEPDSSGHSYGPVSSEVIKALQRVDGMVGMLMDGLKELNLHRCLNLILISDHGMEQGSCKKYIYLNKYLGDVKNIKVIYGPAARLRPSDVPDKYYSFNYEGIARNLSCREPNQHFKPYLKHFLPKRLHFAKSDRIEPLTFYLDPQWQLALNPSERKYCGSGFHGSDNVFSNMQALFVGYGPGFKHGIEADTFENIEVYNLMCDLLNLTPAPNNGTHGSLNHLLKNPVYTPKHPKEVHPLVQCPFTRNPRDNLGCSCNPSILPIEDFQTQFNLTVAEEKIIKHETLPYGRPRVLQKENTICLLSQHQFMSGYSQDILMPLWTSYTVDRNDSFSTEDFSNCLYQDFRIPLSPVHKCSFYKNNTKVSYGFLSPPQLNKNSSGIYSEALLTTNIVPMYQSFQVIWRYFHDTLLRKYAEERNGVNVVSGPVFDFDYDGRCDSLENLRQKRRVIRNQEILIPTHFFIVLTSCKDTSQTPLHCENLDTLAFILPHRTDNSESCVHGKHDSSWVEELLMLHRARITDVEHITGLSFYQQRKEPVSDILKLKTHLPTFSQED
The assay is described as follows: Noncompetitive-inhibition of recombinant human NPP1 expressed in HEK293 cell membranes using p-Nph-5'-TMP as substrate pretreated for 10 mins followed by substrate addition and measured after 60 mins by capillary electrophoresis method.

The target in assay [2] is T2, Ectonucleotide pyrophosphatase/phosphodiesterase family member 1 (Rattus norvegicus, UniProt Q924C3).
T2 sequence (Q924C3 whole entry): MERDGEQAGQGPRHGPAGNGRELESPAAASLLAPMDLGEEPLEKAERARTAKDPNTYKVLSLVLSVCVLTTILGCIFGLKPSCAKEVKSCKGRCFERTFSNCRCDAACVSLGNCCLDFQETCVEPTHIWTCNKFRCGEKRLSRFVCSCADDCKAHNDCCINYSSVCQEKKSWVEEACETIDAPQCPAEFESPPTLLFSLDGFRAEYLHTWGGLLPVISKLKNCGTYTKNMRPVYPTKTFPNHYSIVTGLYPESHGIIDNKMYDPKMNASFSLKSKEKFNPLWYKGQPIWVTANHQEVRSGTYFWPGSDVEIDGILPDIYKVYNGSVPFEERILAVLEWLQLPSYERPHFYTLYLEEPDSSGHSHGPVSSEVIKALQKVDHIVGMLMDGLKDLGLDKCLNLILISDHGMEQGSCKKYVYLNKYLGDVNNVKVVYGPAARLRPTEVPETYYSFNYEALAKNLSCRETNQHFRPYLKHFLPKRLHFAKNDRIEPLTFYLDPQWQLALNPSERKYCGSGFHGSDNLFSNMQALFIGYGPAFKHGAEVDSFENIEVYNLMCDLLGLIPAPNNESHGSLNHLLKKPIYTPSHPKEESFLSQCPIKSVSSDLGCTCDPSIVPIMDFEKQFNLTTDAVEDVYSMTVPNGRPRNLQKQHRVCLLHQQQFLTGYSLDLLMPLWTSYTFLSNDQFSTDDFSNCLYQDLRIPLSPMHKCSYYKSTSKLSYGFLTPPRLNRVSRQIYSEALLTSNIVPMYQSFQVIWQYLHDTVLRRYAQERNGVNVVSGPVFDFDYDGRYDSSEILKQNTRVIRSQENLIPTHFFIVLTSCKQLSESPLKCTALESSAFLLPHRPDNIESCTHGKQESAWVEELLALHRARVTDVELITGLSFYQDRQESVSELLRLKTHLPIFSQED
Nature of the assay: Inhibition of NPP1 in Wistar rat C6 cells using [gamma-32P]ATP as substrate pretreated for 30 mins followed by substrate addition and measured after 90 mins by TLC analysis. The class given is cell-based.

For assay [3], the target named is T2, Ectonucleotide pyrophosphatase/phosphodiesterase family member 1. Nature of the assay: Competitive-inhibition of Wistar rat NPP1 using p-Nph-5'-TMP as substrate measured after 5 mins by UPLC method.
In assay [4] the target is T1, Ectonucleotide pyrophosphatase/phosphodiesterase family member 1. The assay is described as follows: Inhibition of recombinant human NPP1 expressed in COS7 cell membranes using p-Nph-5'-TMP as substrate pretreated for 10 mins followed by substrate addition and measured after 30 mins by spectrophotometric method.
Assay [5] has the same target. Nature of the assay: Competitive-inhibition of recombinant human N-terminal His-tagged soluble NPP1 (Val191 to Leu591 residues) expressed in mouse NSO cells using ATP as substrate after 30 mins by capillary electrophoresis method.
For assay [6] the target is unchanged. Nature of the assay: Uncompetitive-inhibition of recombinant human N-terminal His-tagged soluble NPP1 (Val191 to Leu591 residues) expressed in mouse NSO cells using ATP as substrate by capillary electrophoresis method.
For assay [7] the target is unchanged. Nature of the assay: Uncompetitive-inhibition of recombinant human N-terminal His-tagged soluble NPP1 (Val191 to Leu591 residues) expressed in mouse NSO cells using ATP as substrate after 30 mins by capillary electrophoresis method.
The target is the same in assay [8]. The assay is described as follows: Uncompetitive-inhibition of recombinant human N-terminal His-tagged soluble NPP1 (Val191 to Leu591 residues) expressed in mouse NSO cells using p-Nph-5'-TMP as substrate after 15 mins by capillary electrophoresis method.
The target is the same in assay [9]. The assay is described as follows: Uncompetitive-inhibition of recombinant human N-terminal His-tagged soluble NPP1 (Val191 to Leu591 residues) expressed in mouse NSO cells using p-Nph-5'-AMP as substrate after 30 mins by capillary electrophoresis method.
Assay [10] addresses T2, Ectonucleotide pyrophosphatase/phosphodiesterase family member 1. Nature of the assay: Mixed-inhibition of Wistar rat NPP1 using p-Nph-5'-TMP as substrate measured after 5 mins by UPLC method.
Assay [11] concerns the target T1, Ectonucleotide pyrophosphatase/phosphodiesterase family member 1. Nature of the assay: Competitive-inhibition of recombinant human NPP1 expressed in HEK293 cell membranes using p-Nph-5'-TMP as substrate pretreated for 10 mins followed by substrate addition and measured after 60 mins by capillary electrophoresis method.
The target is the same in assay [12]. Nature of the assay: Inhibition of recombinant human NPP1 expressed in COS7 cell membranes using p-Nph-5'-TMP as substrate pretreated for 10 mins followed by substrate addition and measured after 30 mins.

Turning to `Nc1ncnc2c1ncn2[C@@H](C=O)O[C@@H](C=O)COP(=O)(O)OP(=O)(O)O`, in assay [1], the inhibition constant Ki (commonly the equilibrium dissociation constant of an inhibitor or competing ligand from its target) was 3.42 µM. Consider `Cc1ccc(C(=O)Nc2ccc(S(=O)(=O)O)c3cc(S(=O)(=O)O)cc(S(=O)(=O)O)c23)cc1NC(=O)c1cccc(NC(=O)Nc2cccc(C(=O)Nc3cc(C(=O)Nc4ccc(S(=O)(=O)O)c5cc(S(=O)(=O)O)cc(S(=O)(=O)O)c45)ccc3C)c2)c1` [SURAMIN], for which, in [2], the IC50 (as a rule, the concentration needed to halve the response being measured) was 72 µM.

For `Nc1ncnc2c1ncn2[C@@H]1O[C@H](COP(=O)(O)CP(=O)(O)OP(=O)(O)O)[C@@H](O)[C@H]1O` [DIPHOSPHOMETHYLPHOSPHONIC ACID ADENOSYL ESTER], the inhibitory constant (Ki) in assay [3] was 2.2 µM.

Regarding `Cc1nc(/N=N/c2ccc(S(=O)(=O)O)cc2S(=O)(=O)O)c(COP(=O)(O)O)c(C=O)c1O`, the IC50 in assay [2] worked out at 12 µM. Turning to `COc1cc2cc(-n3cc(C)c4ccccc43)n3c4ccccc4c(C)c3c2cc1OC`, the IC50 in assay [4] lay in the range of 0.36 to 2.81 µM. For `CSc1nc(N)c2ncn([C@@H]3O[C@H](COP(=O)(O)OP(=O)(O)O)[C@@H](O)[C@H]3O)c2n1`, the Ki in assay [5] stood at 23.7 µM. With `CSc1nc(N)c2ncn([C@@H]3O[C@H](COP(=O)(O)OP(=O)(O)OP(=O)(O)O)[C@@H](O)[C@H]3O)c2n1`, the Ki in assay [5] worked out at 21.3 µM; in assay [3], 20.5 µM. In the case of `Nc1ncnc2c1ncn2[C@@H](C=O)O[C@@H](C=O)COP(=O)(O)OP(=O)(O)OP(=O)(O)O`, the Ki amounted to 9.8 µM in assay [3]; 6.82 µM in assay [6]; 6.96 µM in [7]; 4.09 µM in assay [8]; 5.08 µM in [9].

`Nc1ncnc2c1ncn2[C@@H]1O[C@H](COP(=O)(O)CP(=O)(O)O)[C@@H](O)[C@H]1O` [PHOSPHOMETHYLPHOSPHONIC ACID ADENOSYL ESTER]: the Ki in assay [5] turned out to be 24.3 µM; in [10], 9.6 µM. As to `Nc1ncnc2c1ncn2[C@@H]1O[C@H](COP(=O)(O)OP(=O)(O)OP(=O)(O)O)[C@@H](OC(=O)c2ccc(C(=O)c3ccccc3)cc2)[C@H]1O`, the Ki was determined as 14.6 µM in [5], 2.96 µM in [11] and 20.5 µM in assay [3]. Take `CCC(Oc1ccc(C)cc1)c1nnc(SCC(=O)Nc2nc3ccccc3s2)o1` (centres undefined): the IC50 in assay [12] lay within 1.9 to 5.5 µM.
